# Reference: ChEMBL document CHEMBL4699526, “Flavonoids with Inhibitory Effects on NLRP3 Inflammasome Activation from Millettia velutina” (J Nat Prod, 2020)
# What was measured:
# [1] = system: THP-1; test: Cytotoxicity against LPS-primed human PMA-differentiated THP-1 cells 2.5 to 5 uM by CytoTox 96 Non-Radioactive assay; type: cell-based; conditions: dose 2.5-5 µM
# [2] = In vivo inhibition of NLRP3 inflammasome activation in C57BL/6 mouse assessed as mortality rate at 50 mg/kg, ip pretreated for 1 hr followed by LPS-treatment and measured every 12 hrs for 48 hrs (reference value: 100%); type: functional; conditions: C57BL/6, ip, 61 h
# [3] = In vivo inhibition of NLRP3 inflammasome activation in C57BL/6 mouse assessed as survival rate at 50 mg/kg, ip pretreated for 1 hr followed by LPS-treatment and measured every 12 hrs for 48 hrs relative to control; type: functional; conditions: C57BL/6, ip, time 49 hrs
smiles,measurement,setting,value
COc1c(/C=C/C(=O)c2ccccc2)cc(OC)c2occc12,Activity,[1],Non-Toxic
same,mortality at 50 mg/kg,[2],24%
same,survival at 50 mg/kg,[3],100%
